# Where “and” joins values, the source holds several entries; their conditions need not be identical. Identical values can stand only once. Counter-ions that a name gives are not always drawn.
# Legend:
# [1] = system: hair cells; test: Neomycin Hair Cell Toxicity Assay in Zebrafish; assay type: in vivo
# Description: Zebrafish are bred and newly fertilized embryos are collected the week prior and raised at 28.5° C. in petri dishes containing embryo medium. Newly hatched free-swimming larvae are fed paramecium and dry fish food at 4 days post fertilization (dpf) with lights on. For treatment, fish 5-7 dpf are transferred to cell culture baskets and place within a well of a 6-well plate containing 7 milliliters of 1× embryo medium. Typically, tests are done with ten fish per basket but work well with up to 50 fish. All treatment and wash volumes are 7 milliliters.
# 1. Fish are pre-treated with test compound for 1 hour. Concentrations between 0.010 to 25 micromolar of test compound are tested.
# 2. Treat with 200 micromolar neomycin (neomycin sulfate, Sigma, St. Louis, Mo., catalog #N1142)+ test compound for 30 minutes.
# 3. […]
# 5. […] The DASPEI staining of ten neuromasts (SO1, SO2, IO1, IO2, IO3, IO4, M2, MI1, MI2 and O2) on one side of an animal are evaluated. Each neuromast is scored for presence of DASPEI staining (score=2), reduced DASPEI staining (score=1) or absence of DASPEI staining (score=0). […] Average scores and standard deviations are calculated for animals in each treatment group. Scores are normalized to control group (vehicle only, no drug, no neomycin) and expressed as % hair cell survival. […] If less than 50% hair cells survive, the HC50 is not determined. […]
# [2] = system: hair cells; test: Cisplatin Hair Cell Toxicity Assay in Zebrafish; assay type: in vivo; conditions: cisplatin 50 μM for 24 hrs
# Description: Zebrafish are bred and newly fertilized embryos are collected the week prior and raised at 28.5° C. in petri dishes containing embryo medium. Newly hatched free-swimming larvae are fed paramecium and dry fish food at 4 days post fertilization (dpf) with lights on. For treatment, fish 5-7 dpf are transferred to cell culture baskets and place within a well of a 6-well plate containing 7 milliliters of 1× embryo medium. Typically, tests are done with ten fish per basket but work well with up to 50 fish. All treatment and wash volumes are 7 milliliters. • 1. In a 48-well plate, place 10-12 fish/well in 300 μl of EM. • 2. Add ORC-13661 and vehicle control to each well at concentrations listed below. Swirl and place in incubator for 15 min. ORC-13661 concentrations tested: 0.103 μM, 0.308 μM, 0.925 μM, 2.78 μM, 8.33 μM. • 3. Add cisplatin 50 μM to pretreated and control wells. Swirl and place in incubator for 24 hrs. • 4. Place 1-2 drops of MS222 in each well to anesthetize fish, then aspirate treated EM. • 5. Add 300 μl/well of 4% paraformaldehyde to fix fish. Fix overnight at 4° C. or 2 hrs at room temperature (RT). • 6. Rinse wells with PBS for 15 min each 3 times. • 7. Add 300 μl/well of blocking solution for 1 hr at RT. • 8. Incubate with 300 μl/well of 1:400 mouse anti-Parvalbumin antibody overnight at 4° C. • 9. Rinse wells with PBS-T for 15 min each 3 times. • 10. […]
# [3] = system: kidney; test: Effect of Amikacin and Compound 9 on Kidney Function; assay type: in vivo, Fischer 344 rats; conditions: for creatinine clearance (CrCl) post-treatment compared to pretreatment: FIG. 3; for kidney histopathology damage score (0-4): FIG. 4
# Description: The study consisted of three groups of Fischer 344 rats aged 6 weeks and weighing approximately 200 g at the start of the study. Group 1 consisted of six rats, randomly selected to receive amikacin only, Group 2 consisted of six rats chosen randomly to receive amikacin and compound 9, and Group 3 consisted of three rats, 2 rats given compound 9 and 1 rat given only 0.5% Methylcellulose, the diluent for compound 9. All animals receiving amikacin were given 320 mg/kg subcutaneously (SQ) from a freshly prepared solution of amikacin of 40 mg/mL. The compound 9 formualtion was prepared by weighing 13.08 mg of compound 9 dissolved in 12 mL of 0.5% MC in saline with vortexing, sonification and homogenization to obtain a solution with concentration at 12 mg/12 mL=1 mg/mL, dose volume is 5 mL/kg (5 mg/kg). The compound 9 solution was given by oral gavage at a dose of 5 mg/kg.
# One day prior to the onset of dosing, blood was drawn from all rats for serum analysis and all rats were put into metabolic cages for 24 hour urine collection and analysis. All rats were returned to normal cages and allowed to eat and drink ad lib. All rats received their assigned treatments for 10 days and then were returned to metabolic cages for the 10th day. Three rats were randomly chosen from each of Group 1 and Group 2 to have additional blood draws at 30 min, 60 mn, 2 hr, 4 hr, 8 hr and 24 hr after the 10th dose for amikacin and compound 9 PK analysis. All rats had blood drawn for serum analysis at the end of day 10 and the 24 hour urine collected from day 10. After the final blood draw, all rats were euthanized and their kidneys removed and prepared for histopathology testing. The left kidneys were longitudinally sectioned, the right kidneys were cross sectioned. The pathologist read the slides, blinded to the group from which they were assigned. They graded viewed five different locations on each slide and gave each location a score for degree of damage: no damage (0 score); minimal (1-10%, 1 score), mild (11-20%, 2 score), moderate (21-50%, 3 score), or marked (51-100%, 4 score).
# Previous studies have shown that aminoglycoside renal toxicity primarily affects the proximal and distal tubules of the kidney, eventually causing […] of the epithelial cells. The resulting damage causes, in part, decreased glomerular filtration rate (GFR) which may be a result of the tubular damage or partly through other mechanisms. The GFR was approximated using the creatinine clearance. […] The one-sided two-sample t-test p-value for the comparison of the amikacin only (Group 1) and amikacin+compound 9 (Group 2) are shown in a box between the two columns.
# [4] = system: rats; test: Auditory Brainstem Response (ABR) Assay; assay type: in vivo; conditions: Day 24 vs Day 0, FIG. 2
# Description: Chronic treatment of rats with aminoglycosides (AGs) such as kanamycin or amikacin results in an elevation of ABR thresholds, typically most pronounced at higher frequencies. For rats, hearing is tested at a range of frequencies to determine the intensity of sound (measured in decibels) necessary to evoke a response. As hearing loss becomes more severe, a higher intensity is needed to evoke a response. Each rat serves as its own control; hearing thresholds are determined at each frequency prior to any treatment and then at 2 weeks after a 10-day course of AG treatment (or control drug exposures).
# The ABR assay measures short latency field potentials recorded from the scalp of animals that were sedated or noninvasively immobilized. […] For each animal, hearing thresholds, wave 1 latencies and input-output functions for stimulus frequencies at 2, 4, 8, 16 and 32 kHz were measured prior to any treatment to determine the initial sensitivity and dynamic range of hearing, and then repeated at the end of drug treatment and at the end of the experiment (2-weeks after dosing). […]
# ABR records were evaluated by a “blinded”, trained experimenter. Hearing loss (Threshold Shift) was determined by subtracting the threshold during pre-treatment (Day 0) from the final ABR threshold (Day 24; two weeks following treatment). […]
creatinine clearance (CrCl) post-treatment compared to pretreatment ([3]; Group 1: amikacin only 320 mg/kg SQ for 10 days),Hearing loss (ABR Threshold Shift) ([4]; Amikacin alone SC 320 mg/kg/day for 10 days),Structure (SMILES),"EC50 ([1]; Danio rerio, concentration that would produce 50% hair cell survival, 1 hour pre-treatment, then 200 micromolar neomycin + test compound for 30 minutes, read-out: HC50 (the source's name))","Max HC Protection ([1]; at 2.6 μM, 200 micromolar neomycin, % hair cell survival normalized to control)","EC50 ([2]; Danio rerio, 15 min pretreatment, read-out: HC50 (the source's name))","Max HC Protection ([2]; at 8.33 μM, hair cell counts as % control)",creatinine clearance (CrCl) post-treatment compared to pretreatment ([3]; Group 2: amikacin 320 mg/kg SQ + compound 9 5 mg/kg oral gavage for 10 days),"kidney histopathology damage score (0-4) ([3]; amikacin + compound 9 treated rats, longitudinal and cross sectioning (values not assigned to section in text), vs amikacin only p<0.005, hydrochloride)","Hearing loss (ABR Threshold Shift), high frequency ([4]; Amikacin SC 320 mg/kg/day + Compound 9 PO 5 mg/kg/day for 10 days)","kidney histopathology damage score (0-4) ([3]; amikacin only rats, longitudinal and cross sectioning of the kidney)"
,,"CN1[C@H]2CC[C@@H]1c1c(sc(NC(=O)Nc3ccc(Cl)cc3)c1C(N)=O)C2 [Compound 9, (4R,7S)-2-(3-(4-chlorophenyl)ureido)-9-methyl-5,6,7,8-tetrahydro-4H-4,7-epiminocyclohepta[b]thiophene-3-carboxamide hydrochloride]",< 1000 nM,96% protection at 2.6 μM,< 1000 nM,90% protection at 8.33 μM,significantly different from baseline,3.6 and 3.1,robust protection,
significantly different from baseline,hearing loss,"NCC[C@H](O)C(=O)N[C@@H]1C[C@H](N)[C@@H](O[C@H]2O[C@H](CN)[C@@H](O)[C@H](O)[C@H]2O)[C@H](O)[C@H]1O[C@H]1O[C@H](CO)[C@@H](O)[C@H](N)[C@H]1O [amikacin, reference compound]",,,,,,,,3.9

# Source: patent US10399994B2, “Compounds and methods for preventing or treating sensory hair cell death” (UNIVERSITY OF WASHINGTON, priority 2015, dated 2019)
